Measurements as given in patent US5500410A, “Substituted alkylamide derivatives of teicoplanin” (Gruppo Lepetit S.p.A., priority 1989, dated 1996).

Tests used:
[1] = tested on: Streptococcus faecalis ATCC 7080; assay: In vitro MIC, two-fold dilution in microtiter; assay type: cell-based; conditions: 18-24 h at 37° C., inoculum about 10^4 CFU/ml
Description: (§1) Broth cultures are diluted enough so that the final inecuium is about 10^4 colony forming units/ml (CFU/ml).

[2] = tested on: Staphylococcus epidermidis ATCC 12228; assay: In vitro MIC, two-fold dilution in microtiter; assay type: cell-based; conditions: 18-24 h at 37° C., inoculum about 10^4 CFU/ml
Description: as §1

[3] = tested on: Proteus vulgaris X19H ATCC 881; assay: In vitro MIC, two-fold dilution in microtiter; assay type: cell-based; conditions: 18-24 h at 37° C., inoculum about 10^4 CFU/ml
Description: as §1

[4] = tested on: Escherichia coli SKF 12140; assay: In vitro MIC, two-fold dilution in microtiter; assay type: cell-based; conditions: 18-24 h at 37° C., inoculum about 10^4 CFU/ml
Description: as §1

[5] = tested on: Streptococcus pneumoniae UC 41; assay: In vitro MIC, two-fold dilution in microtiter; assay type: cell-based; conditions: 18-24 h at 37° C., inoculum about 10^4 CFU/ml
Description: as §1

[6] = tested on: Staphylococcus aureus TOUR; assay: In vitro MIC, two-fold dilution in microtiter; assay type: cell-based; conditions: 18-24 h at 37° C., inoculum about 10^4 CFU/ml
Description: as §1

[7] = tested on: Staphylococcus haemolyticus L 602; assay: In vitro MIC, two-fold dilution in microtiter; assay type: cell-based; conditions: 18-24 h at 37° C., inoculum about 10^4 CFU/ml
Description: as §1

[8] = tested on: Streptococcus pyogenes C 203; assay: In vitro MIC, two-fold dilution in microtiter; assay type: cell-based; conditions: 18-24 h at 37° C., inoculum about 10^4 CFU/ml
Description: as §1

[9] = tested on: Pseudomonas aeruginosa ATCC 10145; assay: In vitro MIC, two-fold dilution in microtiter; assay type: cell-based; conditions: for MIC Pseudomonas aeruginosa ATCC 10145: 18-24 h at 37° C., inoculum about 10^4 CFU/ml
Description: as §1

Strep. pyogenes C 203 = assay: In vivo test in mice septicemically infected with Strep. pyogenes C 203; conditions: Strep. pyogenes C 203 septicemia
From the text: The ED50 values (mg/kg) of representative compounds of the invention in in vivo tests in mice septicemically infected with Strep. pyogenes. C 203, obtained according to the procedure described by V. Arioli et al. (Journal of Antibiotics 29, 511; 1976) are given in table III.

| Compound | MIC Streptococcus faecalis ATCC 7080 [1] [microgram/ml] | MIC Staphylococcus epidermidis ATCC 12228 [2] [microgram/ml] | MIC Proteus vulgaris X19H ATCC 881 [3] [microgram/ml] | MIC Escherichia coli SKF 12140 [4] [microgram/ml] | MIC Streptococcus pneumoniae UC 41 [5] [microgram/ml] | MIC Staphylococcus aureus TOUR [6] [microgram/ml] | MIC Staphylococcus haemolyticus L 602 [7] [microgram/ml] | MIC Streptococcus pyogenes C 203 [8] [microgram/ml] | MIC Pseudomonas aeruginosa ATCC 10145 [9] [microgram/ml] | ED50 p.o. (Strep. pyogenes C 203) | ED50 s.c. (Strep. pyogenes C 203) [mg/kg] | MIC against Pseudomonas aeruginosa (comparison compounds) ([9]; strain not specified ("the same microorganism")) [microgram/ml] |
| --- | --- | --- | --- | --- | --- | --- | --- | --- | --- | --- | --- | --- |
| CN(C)CCCN(CCCN)CCCNC(=O)C1NC(=O)C2NC(=O)C(NC(=O)C3NC(=O)C4NC(=O)C(Cc5ccc(c(Cl)c5)Oc5cc3cc(c5O)Oc3ccc(cc3Cl)C2O)NC(=O)C(N)c2ccc(O)c(c2)Oc2cc(O)cc4c2)c2ccc(O)c(c2)-c2c(O)cc(O)cc21 (centres unmarked) [Compound 51] | 0.25 | 0.06 | 128 | 8 | 0.12 | 0.12 | 0.12 | 0.06 | 32 |  |  |  |
| CN(C)CCCN1CCN(C(=O)C2NC(=O)C3NC(=O)C(NC(=O)C4NC(=O)C5NC(=O)C(Cc6ccc(c(Cl)c6)Oc6cc4cc(c6O)Oc4ccc(cc4Cl)C3O)NC(=O)C(N)c3ccc(O)c(c3)Oc3cc(O)cc5c3)c3ccc(O)c(c3)-c3c(O)cc(O)cc32)CC1 (centres unmarked) [Compound 53] | 0.12 | 0.06 | 128 | 8 | 0.12 | 0.06 | 0.06 | 0.06 | 32 |  |  |  |
| NCCNCCNC(=O)C1NC(=O)C2NC(=O)C(NC(=O)C3NC(=O)C4NC(=O)C(Cc5ccc(c(Cl)c5)Oc5cc3cc(c5O)Oc3ccc(cc3Cl)C2O)NC(=O)C(N)c2ccc(O)c(c2)Oc2cc(O)cc4c2)c2ccc(O)c(c2)-c2c(O)cc(O)cc21 (centres unmarked) [Compound 21] | 0.12 | 0.06 | 64 | 8 | 0.12 | 0.06 | 0.12 | 0.12 | 64 |  |  |  |
| CC(=O)NC1C(OC2c3ccc(c(Cl)c3)Oc3cc4cc(c3OC3OC(CO)C(O)C(O)C3NC(=O)CCCCCCC(C)C)Oc3ccc(cc3Cl)CC3NC(=O)C(N)c5ccc(O)c(c5)Oc5cc(O)cc(c5)C(NC3=O)C(=O)NC4C(=O)NC3C(=O)NC2C(=O)NC(C(=O)NCCCNCCCCNCCCN)c2cc(O)cc(OC4OC(CO)C(O)C(O)C4O)c2-c2cc3ccc2O)OC(CO)C(O)C1O (centres unmarked) [Compound 11] | 0.12 | 0.06 | 128 | 64 | 0.12 | 0.12 | 0.12 | 0.06 | 32 | 81.2 mg/kg | 0.03 |  |
| CC(=O)N[C@H]1[C@H](OC2c3ccc(c(Cl)c3)Oc3cc4cc(c3O)Oc3ccc(cc3Cl)CC3NC(=O)C(N)c5ccc(O)c(c5)Oc5cc(O)cc(c5)C(NC3=O)C(=O)NC4C(=O)NC3C(=O)NC2C(=O)NC(C(=O)NCCCNCCCCNCCCN)c2cc(O)cc(O[C@H]4O[C@H](CO)[C@@H](O)[C@H](O)[C@@H]4O)c2-c2cc3ccc2O)O[C@H](CO)[C@@H](O)[C@@H]1O (some centres unmarked) [Compound 39] | 0.5 | 0.06 | > 128 | 32 | 0.5 | 0.25 | 0.12 | 0.12 | 128 |  |  |  |
| NCCCNCCCCCCCCCCNCCCNC(=O)C1NC(=O)C2NC(=O)C(NC(=O)C3NC(=O)C4NC(=O)C(Cc5ccc(c(Cl)c5)Oc5cc3cc(c5O)Oc3ccc(cc3Cl)C2O)NC(=O)C(N)c2ccc(O)c(c2)Oc2cc(O)cc4c2)c2ccc(O)c(c2)-c2c(O)cc(O)cc21 (centres unmarked) [Compound 55] | 1 | 0.12 | > 128 | > 128 | 0.12 | 1 | 1 | 0.12 | > 128 |  |  |  |
| CC(=O)N[C@H]1[C@H](OC2c3ccc(c(Cl)c3)Oc3cc4cc(c3O[C@@H]3O[C@H](CO)[C@@H](O)[C@H](O)[C@H]3NC(=O)CCCCCCC(C)C)Oc3ccc(cc3Cl)CC3NC(=O)C(N)c5ccc(O)c(c5)Oc5cc(O)cc(c5)C(NC3=O)C(=O)NC4C(=O)NC3C(=O)NC2C(=O)NC(C(=O)NCCNCCN)c2cc(O)cc(O[C@H]4O[C@H](CO)[C@@H](O)[C@H](O)[C@@H]4O)c2-c2cc3ccc2O)O[C@H](CO)[C@@H](O)[C@@H]1O (some centres unmarked) [Compound 2] |  |  |  |  |  |  |  |  |  | about 60 mg/kg | 0.09 |  |
| teicoplanin [reference compound] |  |  |  |  |  |  |  |  |  |  |  | ≥ 32 |
| CCN(CC)CCN(CCCN)CCCNC(=O)C1NC(=O)C2NC(=O)C(NC(=O)C3NC(=O)C4NC(=O)C(Cc5ccc(c(Cl)c5)Oc5cc3cc(c5O)Oc3ccc(cc3Cl)C2O)NC(=O)C(N)c2ccc(O)c(c2)Oc2cc(O)cc4c2)c2ccc(O)c(c2)-c2c(O)cc(O)cc21 (centres unmarked) [Compound 52] | 0.12 | 0.03 | > 128 | 32 | 0.12 | 0.12 | 0.12 | 0.12 | 128 |  |  |  |
| NCCCN1CCN(CCCNC(=O)C2NC(=O)C3NC(=O)C(NC(=O)C4NC(=O)C5NC(=O)C(Cc6ccc(c(Cl)c6)Oc6cc4cc(c6O)Oc4ccc(cc4Cl)C3O)NC(=O)C(N)c3ccc(O)c(c3)Oc3cc(O)cc5c3)c3ccc(O)c(c3)-c3c(O)cc(O)cc32)CC1 (centres unmarked) [Compound 30] | 0.12 | 0.06 | 128 | 4 | 0.12 | 0.06 | 0.12 | 0.06 | 16 |  |  |  |
| NCCNCCCNCCNC(=O)C1NC(=O)C2NC(=O)C(NC(=O)C3NC(=O)C4NC(=O)C(Cc5ccc(c(Cl)c5)Oc5cc3cc(c5O)Oc3ccc(cc3Cl)C2O)NC(=O)C(N)c2ccc(O)c(c2)Oc2cc(O)cc4c2)c2ccc(O)c(c2)-c2c(O)cc(O)cc21 (centres unmarked) [Compound 24] | 0.12 | 0.06 | 128 | 4 | 0.12 | 0.06 | 0.06 | 0.06 | 64 |  |  |  |
| NCCCNCCCCCCCCCNCCCNC(=O)C1NC(=O)C2NC(=O)C(NC(=O)C3NC(=O)C4NC(=O)C(Cc5ccc(c(Cl)c5)Oc5cc3cc(c5O)Oc3ccc(cc3Cl)C2O)NC(=O)C(N)c2ccc(O)c(c2)Oc2cc(O)cc4c2)c2ccc(O)c(c2)-c2c(O)cc(O)cc21 (centres unmarked) [Compound 54] | 2 | 0.12 | > 128 | > 128 | 0.12 | 0.5 | 2 | 0.03 | 128 |  |  |  |
| CC(=O)N[C@H]1[C@H](OC2c3ccc(c(Cl)c3)Oc3cc4cc(c3O)Oc3ccc(cc3Cl)CC3NC(=O)C(N)c5ccc(O)c(c5)Oc5cc(O)cc(c5)C(NC3=O)C(=O)NC4C(=O)NC3C(=O)NC2C(=O)NC(C(=O)NCCCNCCCCNCCCN)c2cc(O)cc(O)c2-c2cc3ccc2O)O[C@H](CO)[C@@H](O)[C@@H]1O (some centres unmarked) [Compound 44] | 0.25 | 0.06 | 128 | 4 | 0.25 | 0.12 | 0.06 | 0.06 | 16 |  |  |  |
